pIC50: −log10 of the molar value.
Tests used:
[1] = system: Vero E6 cells; assay: Cytotoxicity, neutral red uptake assay in Vero E6 cells
[2] = as above; conditions: African green monkey
[3] = biological target: EV-A71 3C^pro (Human enterovirus 71, UniProt Q66478); assay: FRET-based enzymatic assay, EV-A71 3C^pro; type: biochemical
[4] = biological target: EV-D68 3C^pro (Human enterovirus D68, UniProt Q68T42); assay: FRET-based enzymatic assay, EV-D68 3C^pro; type: biochemical
[5] = biological target: EV-A71 2A^pro (Human enterovirus 71, UniProt Q66478); assay: FRET-based enzymatic assay, EV-A71 2A^pro; type: biochemical
Sequence of EV-A71 2A^pro (Q66478 863-1012 limits assumed): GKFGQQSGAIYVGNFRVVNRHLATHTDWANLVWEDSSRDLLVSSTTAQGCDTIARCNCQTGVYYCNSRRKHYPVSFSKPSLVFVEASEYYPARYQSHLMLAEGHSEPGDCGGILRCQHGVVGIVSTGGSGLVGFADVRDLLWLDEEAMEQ

[6] = biological target: EV-D68 2A^pro (Human enterovirus D68, UniProt Q68T42); assay: FRET-based enzymatic assay, EV-D68 2A^pro; type: biochemical
Sequence of EV-D68 2A^pro (Q68T42 862-1008 limits assumed): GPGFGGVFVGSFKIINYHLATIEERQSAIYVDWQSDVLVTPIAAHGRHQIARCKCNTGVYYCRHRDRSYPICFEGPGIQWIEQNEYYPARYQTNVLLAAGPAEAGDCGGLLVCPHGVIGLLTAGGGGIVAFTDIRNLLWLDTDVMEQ

[7] = biological target: SARS-CoV M^pro (Severe acute respiratory syndrome coronavirus, UniProt P0C6X7); assay: biochemical; conditions: IC50 against SARS-CoV M^pro
[8] = biological target: MERS-CoV M^pro (Middle East respiratory syndrome-related coronavirus, UniProt K9N7C7); type: biochemical
Sequence of MERS-CoV M^pro (K9N7C7 3248-3553 limits assumed): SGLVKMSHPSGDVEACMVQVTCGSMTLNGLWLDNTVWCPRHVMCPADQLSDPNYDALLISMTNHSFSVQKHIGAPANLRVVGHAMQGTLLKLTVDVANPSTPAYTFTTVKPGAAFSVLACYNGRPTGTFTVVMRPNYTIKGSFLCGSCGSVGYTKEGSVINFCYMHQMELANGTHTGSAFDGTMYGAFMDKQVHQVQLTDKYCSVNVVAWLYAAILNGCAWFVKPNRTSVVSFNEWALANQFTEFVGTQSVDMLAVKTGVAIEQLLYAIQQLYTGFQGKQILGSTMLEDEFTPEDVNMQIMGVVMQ

[9] = biological target: HCoV-OC43 M^pro (Human coronavirus OC43, UniProt P0C6X6); assay: FRET-based enzymatic assay, HCoV-OC43 M^pro
Sequence of HCoV-OC43 M^pro (P0C6X6 3247-3549 limits assumed): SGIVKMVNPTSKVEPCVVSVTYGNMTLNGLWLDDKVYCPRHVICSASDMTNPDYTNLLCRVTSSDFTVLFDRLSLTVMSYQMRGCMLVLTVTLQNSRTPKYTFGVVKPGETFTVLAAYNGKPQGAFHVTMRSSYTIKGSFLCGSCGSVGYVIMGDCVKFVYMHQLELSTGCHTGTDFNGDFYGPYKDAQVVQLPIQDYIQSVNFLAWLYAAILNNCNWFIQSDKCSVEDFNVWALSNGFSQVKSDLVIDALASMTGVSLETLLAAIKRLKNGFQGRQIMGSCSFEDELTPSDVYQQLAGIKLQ

[10] = system: Calu-3 cells; assay: Cytotoxicity in Calu-3 cells

Sequence of EV-D68 3C^pro (Q68T42 1549-1731 limits assumed): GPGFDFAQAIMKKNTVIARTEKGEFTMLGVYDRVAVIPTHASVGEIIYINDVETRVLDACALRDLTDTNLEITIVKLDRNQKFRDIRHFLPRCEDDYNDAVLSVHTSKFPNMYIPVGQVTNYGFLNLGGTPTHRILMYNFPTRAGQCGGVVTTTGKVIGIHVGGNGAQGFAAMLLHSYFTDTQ
Sequence of EV-A71 3C^pro (Q66478 1549-1731 limits assumed): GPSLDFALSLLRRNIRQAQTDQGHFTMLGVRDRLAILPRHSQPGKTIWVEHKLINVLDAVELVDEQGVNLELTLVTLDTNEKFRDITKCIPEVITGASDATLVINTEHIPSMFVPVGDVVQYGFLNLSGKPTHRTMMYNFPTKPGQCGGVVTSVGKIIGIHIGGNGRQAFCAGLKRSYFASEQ

With `O=C(NC1CCCCC1)C(c1cccnc1)N(C(=O)c1ccco1)c1ccc(-c2ccccc2)cc1` (centres unmarked) [Compound 34, 2-(N-{[1,1’-biphenyl]-4-yl}-1-(furan-2-yl)formamido)-N-cyclohexyl-2-(pyridin-3-yl)acetamide] the “CC50 in Vero E6 cells” value [1] was “moderate to high cellular cytotoxicity”.

With `C[C@H](NC(=O)C(c1cccnc1)N(C(=O)c1ccco1)c1ccc(-c2cccs2)cc1)c1ccccc1` (stereo partly drawn) [Compound 19, 2-[1-(furan-2-yl)-N-[4-(thiophen-2-yl)phenyl]formamido]-N-[(1S)-1-phenylethyl]-2-(pyridin-3-yl)acetamide] the “CC50 in Vero E6 cells” value [1] was “moderate to high cellular cytotoxicity”.

For `CC(C)(C)c1ccc(N(C(=O)c2ccco2)C(C(=O)NC2CCCC2)c2cccnc2)cc1` (centres unmarked) [Compound 5, 2-[N-(4-tert-butylphenyl)-1-(furan-2-yl)formamido]-N-cyclopentyl-2-(pyridin-3-yl)acetamide], the CC50 at 5 days [2] was over 100 µM.

`CC(C)C[C@H](NC(=O)OCc1ccccc1)C(=O)N[C@@H](C[C@@H]1CCNC1=O)C(O)S(=O)(=O)O` (some centres unmarked) [GC376, reference compound] showed a pIC50 [3] of at least 6.80, a pIC50 [4] of at least 6.80 and a pIC50 [5] of under 4.30. The pIC50 [6] was under 4.30.

With `CC(C)(C)c1ccc(N(C(=O)c2ccco2)C(C(=O)NC2CC2)c2cccnc2)cc1` (centres unmarked) [Compound 3, 2-[N-(4-tert-butylphenyl)-1-(furan-2-yl)formamido]-N-cyclopropyl-2-(pyridin-3-yl)acetamide] the “CC50 in Vero E6 cells” value [1] was “moderate to high cellular cytotoxicity”.

In the case of `C[C@H](NC(=O)C(c1cccnc1)N(C(=O)c1ccco1)c1ccc(C2CCCCC2)cc1)c1ccccc1` (stereo partly drawn) [Compound 17, 2-[N-(4-cyclohexylphenyl)-1-(furan-2-yl)formamido]-N-[(1S)-1-phenylethyl]-2-(pyridin-3-yl)acetamide], the “CC50 in Vero E6 cells” value [1] was “moderate to high cellular cytotoxicity”.

In the case of `C[C@H](NC(=O)[C@@H](c1cccnc1)N(C(=O)c1ccco1)c1ccc(-c2ccccc2)cc1)c1ccccc1` [Compound 23R, (2R)-2-(N-{[1,1’-biphenyl]-4-yl}-1-(furan-2-yl)formamido)-N-[(1S)-1-phenylethyl]-2-(pyridin-3-yl)acetamide], the pIC50 [7] was at least 6.57, the “IC50 against MERS-CoV M^pro” value [8] was “not other viral proteases tested” and the “IC50 against EV-A71 3C^pro” value ([3]; FRET-based enzymatic assay) was “not other viral proteases tested”. The “IC50 against EV-D68 3C^pro” value ([4]; FRET-based enzymatic assay) was “not other viral proteases tested”, the “IC50 against EV-A71 2A^pro” value ([5]; FRET-based enzymatic assay) was “not other viral proteases tested” and the “IC50 against EV-D68 2A^pro” value ([6]; FRET-based enzymatic assay) was “not other viral proteases tested”. The “IC50 against HCoV-OC43 M^pro” value [9] was “not other viral proteases tested”, the “cytotoxicity in Calu-3 cells (not cytotoxic at up to)” value [10] was over 100 µM and the “cytotoxicity to Vero E6 cells (not cytotoxic at up to)” value [1] was over 100 µM.

For `CC(C)(C)c1ccc(N(C(=O)c2ccco2)C(C(=O)NC2CCCCC2)c2cccnc2)cc1` (centres unmarked) [Compound 6, 2-[N-(4-tert-butylphenyl)-1-(furan-2-yl)formamido]-N-cyclohexyl-2-(pyridin-3-yl)acetamide], the “CC50 in Vero E6 cells” value [1] was “moderate to high cellular cytotoxicity”.

With `C[C@H](NC(=O)C(c1cccnc1)N(C(=O)c1cnco1)c1ccc(-c2ccccc2)cc1)c1ccccc1` (stereo partly drawn) [Compound 26, 2-(N-{[1,1’-biphenyl]-4-yl}-1-(1,3-oxazol-5-yl)formamido)-N-[(1S)-1-phenylethyl]-2-(pyridin-3-yl)acetamide] the “CC50 in Vero E6 cells” value [1] was “moderate to high cellular cytotoxicity”.

For `C[C@H](NC(=O)C(c1cccnc1)N(C(=O)c1ccco1)c1ccc([Si](C)(C)C)cc1)c1ccccc1` (stereo partly drawn) [Compound 14, 2-[1-(furan-2-yl)-N-[4-(trimethylsilyl)phenyl]formamido]-N-[(1S)-1-phenylethyl]-2-(pyridinyl)acetamide], the “CC50 in Vero E6 cells” value [1] was “moderate to high cellular cytotoxicity”.

For `C[C@H](NC(=O)C(c1cccnc1)N(C(=O)c1ccno1)c1ccc(C2CCCCC2)cc1)c1ccccc1` (stereo partly drawn) [Compound 36, 2-[N-(4-cyclohexylphenyl)-1-(1,2-oxazol-5-yl)formamido]-N-[(1S)-1-phenylethyl]-2-(pyridin-3-yl)acetamide], the “CC50 in Vero E6 cells” value [1] was “moderate to high cellular cytotoxicity”.

With `C[C@H](NC(=O)C(c1cccnc1)N(C(=O)c1ccco1)c1ccc(-c2ccco2)cc1)c1ccccc1` (stereo partly drawn) [Compound 18, 2-[1-(furan-2-yl)-N-[4-(furan-2-yl)phenyl]formamido]-N-[(1S)-1-phenylethyl]-2-(pyridin-3-yl)acetamide] the “CC50 in Vero E6 cells” value [1] was “moderate to high cellular cytotoxicity”.

From publication PMC8536799 (Journal of medicinal chemistry, 2021)
